Experimental data as given in paper PMC7983974 (Basic & Clinical Pharmacology & Toxicology, 2020).
Several values for one entry are separate records, joined by “and”; a condition that tells them apart may be missing. Identical values can stand only once. Like-named read-outs stand apart in the source and are kept apart here.

Columns and labels:
[1] = system: molidustat glucuronidation (clearance); test: In vitro-in vivo scaling: predicted increase in molidustat AUC; parameters: species or system human; settings: based on mass balance study, no differentiation UGT1A1/UGT1A9
[2] = biological target: T1, UGT1A4 (Homo sapiens, UniProt P22310); test: M1 formation from molidustat by recombinant UGT1A4; format: in vitro ADME; settings: 1 and 10 µmol L^−1
T1 sequence (P22310 29-534): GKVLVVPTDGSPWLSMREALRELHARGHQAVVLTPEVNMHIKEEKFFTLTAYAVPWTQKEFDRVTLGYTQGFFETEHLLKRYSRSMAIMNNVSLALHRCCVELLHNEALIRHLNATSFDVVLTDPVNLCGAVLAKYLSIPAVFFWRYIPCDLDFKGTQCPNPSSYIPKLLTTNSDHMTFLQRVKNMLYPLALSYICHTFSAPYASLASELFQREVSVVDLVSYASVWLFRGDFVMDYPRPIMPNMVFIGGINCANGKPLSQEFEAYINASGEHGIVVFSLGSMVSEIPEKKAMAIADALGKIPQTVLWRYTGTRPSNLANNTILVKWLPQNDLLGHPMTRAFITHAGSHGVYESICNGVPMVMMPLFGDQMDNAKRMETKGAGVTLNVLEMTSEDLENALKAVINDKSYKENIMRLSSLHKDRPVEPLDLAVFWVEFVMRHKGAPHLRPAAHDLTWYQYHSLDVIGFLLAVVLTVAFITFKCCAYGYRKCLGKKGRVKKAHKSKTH

[3] = biological target: T2, UGT1A10 (Homo sapiens, UniProt Q9HAW8); test: M1 formation from molidustat by recombinant UGT1A10; format: in vitro ADME; settings: 1 and 10 µmol L^−1
T2 sequence (Q9HAW8 26-530): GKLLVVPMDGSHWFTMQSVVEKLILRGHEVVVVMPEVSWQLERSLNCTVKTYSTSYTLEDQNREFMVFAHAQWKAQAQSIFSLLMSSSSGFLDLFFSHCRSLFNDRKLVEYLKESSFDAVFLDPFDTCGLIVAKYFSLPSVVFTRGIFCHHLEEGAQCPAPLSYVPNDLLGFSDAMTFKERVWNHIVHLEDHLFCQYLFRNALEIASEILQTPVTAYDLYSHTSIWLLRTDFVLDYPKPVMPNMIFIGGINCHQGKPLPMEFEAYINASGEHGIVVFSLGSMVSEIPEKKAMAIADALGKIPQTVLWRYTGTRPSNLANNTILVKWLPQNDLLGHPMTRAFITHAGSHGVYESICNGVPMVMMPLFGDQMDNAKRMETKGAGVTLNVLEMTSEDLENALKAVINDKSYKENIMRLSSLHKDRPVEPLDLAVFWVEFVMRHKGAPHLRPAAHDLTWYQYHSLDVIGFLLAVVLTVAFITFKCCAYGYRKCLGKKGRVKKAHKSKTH

[4] = biological target: T3, UGT2B4 (Homo sapiens, UniProt P06133); test: M1 formation from molidustat by recombinant UGT2B4; format: in vitro ADME; settings: 1 and 10 µmol L^−1
T3 sequence (P06133 24-528): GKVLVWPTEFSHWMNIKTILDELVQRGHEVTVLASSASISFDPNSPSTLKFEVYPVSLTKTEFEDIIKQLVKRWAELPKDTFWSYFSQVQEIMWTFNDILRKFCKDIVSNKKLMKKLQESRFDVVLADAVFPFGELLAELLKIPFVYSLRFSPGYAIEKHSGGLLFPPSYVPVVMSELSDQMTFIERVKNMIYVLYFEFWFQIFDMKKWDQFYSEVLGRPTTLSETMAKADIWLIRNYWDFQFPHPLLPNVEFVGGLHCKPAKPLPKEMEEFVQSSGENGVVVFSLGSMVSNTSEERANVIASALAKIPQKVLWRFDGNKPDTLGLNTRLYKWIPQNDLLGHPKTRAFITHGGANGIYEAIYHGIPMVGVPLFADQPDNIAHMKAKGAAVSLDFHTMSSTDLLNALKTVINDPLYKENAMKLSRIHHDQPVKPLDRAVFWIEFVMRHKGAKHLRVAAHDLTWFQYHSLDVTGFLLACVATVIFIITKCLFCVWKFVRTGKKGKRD

[5] = biological target: T4, UGT2B7 (Homo sapiens, UniProt P16662); test: M1 formation from molidustat by recombinant UGT2B7; format: in vitro ADME; settings: 1 and 10 µmol L^−1
T4 sequence (P16662 24-529): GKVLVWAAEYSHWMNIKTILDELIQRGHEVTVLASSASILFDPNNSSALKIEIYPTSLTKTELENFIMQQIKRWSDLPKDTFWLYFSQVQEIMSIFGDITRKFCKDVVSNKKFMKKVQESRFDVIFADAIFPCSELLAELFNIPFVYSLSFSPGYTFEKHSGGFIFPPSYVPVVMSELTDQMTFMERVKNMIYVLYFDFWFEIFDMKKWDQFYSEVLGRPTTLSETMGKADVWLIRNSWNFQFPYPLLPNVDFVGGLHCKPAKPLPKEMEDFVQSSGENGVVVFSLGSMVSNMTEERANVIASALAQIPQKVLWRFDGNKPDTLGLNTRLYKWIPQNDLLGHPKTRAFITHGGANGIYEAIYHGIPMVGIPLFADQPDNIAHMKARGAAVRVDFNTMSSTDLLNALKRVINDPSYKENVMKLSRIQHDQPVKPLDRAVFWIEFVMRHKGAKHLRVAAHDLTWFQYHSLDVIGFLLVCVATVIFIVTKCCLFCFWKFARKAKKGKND

[6] = biological target: T5, UGT2B15 (Homo sapiens, UniProt P54855); test: M1 formation from molidustat by recombinant UGT2B15; format: in vitro ADME; settings: 1 and 10 µmol L^−1
T5 sequence (P54855 24-530): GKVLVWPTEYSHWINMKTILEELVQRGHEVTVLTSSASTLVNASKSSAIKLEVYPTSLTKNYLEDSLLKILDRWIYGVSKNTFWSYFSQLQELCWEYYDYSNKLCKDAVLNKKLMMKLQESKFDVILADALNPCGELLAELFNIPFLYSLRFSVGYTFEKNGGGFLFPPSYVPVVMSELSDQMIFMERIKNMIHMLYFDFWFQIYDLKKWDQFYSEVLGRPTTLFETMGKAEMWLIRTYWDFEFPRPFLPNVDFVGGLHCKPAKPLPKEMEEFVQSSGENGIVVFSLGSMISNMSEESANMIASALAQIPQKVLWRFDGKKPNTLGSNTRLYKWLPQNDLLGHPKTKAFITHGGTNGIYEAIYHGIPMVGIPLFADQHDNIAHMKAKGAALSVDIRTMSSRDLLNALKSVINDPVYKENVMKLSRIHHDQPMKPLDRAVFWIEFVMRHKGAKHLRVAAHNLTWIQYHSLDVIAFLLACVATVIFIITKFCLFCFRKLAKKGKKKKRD

[7] = format: in vivo, human; settings: for Point estimate parameter ratio, AUC / Point estimate parameter ratio, AUC(0‐tlast) / Point estimate parameter ratio, C max: (Molidustat + atazanavir)/molidustat, ANOVA
[8] = system: HIF‐PH (EC 1.14.11.29); settings: cited from earlier work
[9] = male, human, plasma, oral, 25 mg

In the case of `O=c1c(-n2ccnn2)c[nH]n1-c1cc(N2CCOCC2)ncn1` [Molidustat], the “Fraction metabolized via total glucuronidation (fm)” value [1] is reported as ~ 0.9 and 0.9, the “activity for glucuronidation of molidustat” value (from here on “activity for glucuronidation”) [2] is reported as “lacked measurable activity” and the “activity for glucuronidation” value [3] is reported as “lacked measurable activity”. The “activity for glucuronidation” value [4] was “lacked measurable activity”, the “activity for glucuronidation” value [5] was “lacked measurable activity” and the “activity for glucuronidation” value [6] was “lacked measurable activity”. The “Point estimate parameter ratio, AUC” value [7] was 2.0665, the “Point estimate parameter ratio, AUC(0‐tlast)” value [7] was 2.0766 and the “Point estimate parameter ratio, C max” value [7] was 2.0689. The “Point estimate parameter ratio, AUC” value ([7]; listed as molidustat) was 2.07 and 2, the “Point estimate parameter ratio, AUC(0‐tlast)” value ([7]; listed as molidustat) was 2.08 and the “Point estimate parameter ratio, C max” value ([7]; listed as molidustat) was 2.07. The “increase in exposure for molidustat with concomitant atazanavir” value ([7]; AUC, AUC(0‐t last), C max) was “approximately 100%”, the half-life [7, 9] was 6.3 h and the t max [7, 9] was 0.75 h. For the same compound, the “inhibition of HIF‐PH” value [8] was “nanomolar concentration range”.
